The record followed here is ChEMBL document CHEMBL1201862, “PubChem BioAssay data set” (2004).

Among the test systems are 786-0; ACHN; COLO 205; DLD-1; DMS-273; EKVX; HCT-15; HOP-62; K562; MOLT-4; Malme-3M; NCI-H23; SF-295; SK-MEL-5; SN12C; SNB-75; BT-549; MCF7; PC-3; SF-539.
Experiment in all cases: growth of human tumour cells (NCI), 48 h

Each structure is given as a SMILES string.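 How tested: cells in 96-well plates exposed to compound for 48 hours at five concentrations. At the GI50, growth is halved.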 The source made the active and inactive calls. No stated cut-off is given here; in the data, active = GI50 up to about 1.1 µM and inactive = higher.

As for `CCCCCCCCSC(SCCCCCCCC)=C1C(=O)N(c2ccccc2)N=C1C`, the GI50 was 46.1 µM (inactive) with 786-0; 35.2 µM (inactive) with ACHN; 24.7 µM (inactive) in the experiment on COLO 205; 21.4 µM (inactive) with DLD-1; 49.4 µM (inactive) in the experiment on DMS-273; 59.3 µM (inactive) in the experiment with EKVX. For the same compound, the GI50 with HCT-15 was 37.7 µM; with HOP-62 it was 46.5 µM (inactive); with K562, 28.7 µM (inactive); with MOLT-4, 28.4 µM (inactive); with Malme-3M, 53.6 µM (inactive); with NCI-H23, 32.8 µM (inactive). Further, the GI50 with SF-295 is 36.9 µM (inactive); in the experiment on SK-MEL-5, 47 µM (inactive); with SN12C, 33.7 µM (inactive); with SNB-75, 41.8 µM (inactive).

Turning to `CCOC(=O)CCn1[nH]c(=O)c(Cl)c(Cl)c1=O`, the GI50 in the experiment on 786-0, with ACHN, in the experiment with COLO 205, in the experiment with DLD-1, with DMS-273 and in the experiment with EKVX was > 100 µM (inactive) each time. The GI50 in the experiment on HCT-15 was above 100 µM; in the experiment with HOP-62, > 100 µM (inactive); in the experiment with K562, > 100 µM (inactive); with Malme-3M it was > 100 µM (inactive); with NCI-H23, > 100 µM (inactive); in the experiment on SF-295 it was > 100 µM (inactive). In addition, the GI50 with SK-MEL-5, in the experiment on SN12C and in the experiment on SNB-75 was > 100 µM (inactive) each time.

`O=C1NC(O)c2cc3ccccc3cc2O1` (configuration not stated): the GI50 with 786-0 is > 100 µM (inactive); with ACHN it was > 100 µM (inactive); in the experiment with BT-549 it was 26.4 µM (inactive); in the experiment on COLO 205, > 100 µM (inactive); in the experiment with EKVX, > 100 µM (inactive); in the experiment on HCT-15, 19.1 µM. For the same compound, the GI50 is > 100 µM (inactive) with HOP-62; 34.9 µM (inactive) in the experiment on K562; 29.6 µM (inactive) in the experiment with MCF7; 30.5 µM (inactive) in the experiment on MOLT-4; 59.7 µM (inactive) in the experiment on Malme-3M; 42.7 µM (inactive) with NCI-H23. Also, the GI50 is 31.1 µM (inactive) with PC-3; > 100 µM (inactive) with SF-295; 28 µM (inactive) with SF-539; 56.5 µM (inactive) in the experiment with SK-MEL-5; 69 µM (inactive) in the experiment on SN12C; 79.6 µM (inactive) in the experiment with SNB-75.

As for `CC12CC[C@@H](C(C)(C)O)C1[C@@H](O)CC1(C)C2CCC2[C@@]3(C)CC[C@H](O)C(C)(C)C3C(O)C[C@]21C` (some centres not stated), the GI50 is 12.1 µM (inactive) in the experiment with 786-0; 13.1 µM (inactive) in the experiment on ACHN; 15.6 µM (inactive) with COLO 205; 19.8 µM (inactive) with DLD-1; 13.2 µM (inactive) with EKVX; 11.5 µM in the experiment with HCT-15. The GI50 is 11.8 µM (inactive) in the experiment with K562; 4.07 µM (inactive) in the experiment on MOLT-4; 13.8 µM (inactive) in the experiment on Malme-3M; 16.1 µM (inactive) in the experiment on NCI-H23; 18.3 µM (inactive) in the experiment with SF-295; 15.8 µM (inactive) with SF-539. The values for the GI50 in the experiment on SK-MEL-5 and in the experiment with SN12C were 4.07 µM (inactive) and 13.4 µM (inactive), respectively.

`CN(C)CCNc1ccc2nnn3c4ccc(O)cc4c(=O)c1c23`: the GI50 in the experiment with 786-0 is 2.15 µM (inactive); with ACHN, 2.76 µM (inactive); in the experiment on BT-549 it was 15.2 µM (inactive); in the experiment on COLO 205, 3.39 µM (inactive); in the experiment with DLD-1 it was 3.4 µM (inactive); in the experiment with EKVX, 3.13 µM (inactive). In addition, the GI50 with HCT-15 is 1.29 µM; in the experiment on HOP-62, 1.39 µM (inactive); with K562, 1.61 µM (inactive); in the experiment with MCF7, 2.44 µM (inactive); in the experiment on MOLT-4, 0.168 µM (active); in the experiment with Malme-3M, 5.05 µM (inactive). In addition, the GI50 in the experiment on NCI-H23 is 3.75 µM (inactive); in the experiment on PC-3, 1.46 µM (inactive); in the experiment with SF-295 it was 2.54 µM (inactive); in the experiment with SF-539 it was 3.95 µM (inactive); in the experiment with SK-MEL-5, 2.53 µM (inactive); with SN12C, 1.85 µM (inactive). In addition, the GI50 in the experiment on SNB-75 is 9.57 µM (inactive).
